According to PMC9882114 (bioRxiv, 2024):

Key:
Format in all cases: biochemical
iNicSnFR12-S467R = assay: Nicotine-induced fluorescence increase of purified iNicSnFR12-S467R, Hill fit; conditions: read-out: EC50 (nicotine-induced fluorescence, iNicSnFR12-S467R); SEM, n = 3
iNicSnFR12 [1] = conditions: read-out: EC50, μM (Figure 1B, 1C, purified sensors); n = 3
iNicSnFR12 [2] = assay: Fluorescence dose-response relations of nicotinic drugs at purified iNicSnFR12
iNicSnFR11 = assay: Fluorescence dose-response relations of nicotinic drugs at purified iNicSnFR11; conditions: purified iNicSnFR11 100 nM, 3×PBS pH 7.40, Hill fit

EC50 (iNicSnFR12-S467R) [µM] | Structure (SMILES) | EC50 (iNicSnFR12 [1]) [µM] | expected activation at iNicSnFR12 (iNicSnFR12 [2]; [choline] 1 μM as in 10% rat serum) | expected activation at iNicSnFR12 (iNicSnFR12 [2]; [choline] 2.5 μM as in 25% human serum) [%] | EC50 (iNicSnFR11) [µM]
25.6 | CN1CCC[C@H]1c1cccnc1 [nicotine] | – | – | – | –
– | C[N+](C)(C)CCO [choline] | ≥ 100 | at most 1% | ≤ 2.5 | ~170
